Assays:
HIV protease = target: T1, HIV protease (Human immunodeficiency virus type 1 group M subtype B, UniProt P04585); test: HIV-specific protease enzyme test (RP-HPLC analysis of synthetic peptide cleavage); format: biochemical; conditions: purified HIV protease, synthetic peptide imitating a Gag precursor cleavage site; concentration causing 50% inhibition of protease activity
T1 construct: purified HIV protease was incubated with synthetic peptide
Procedure: This is confirmed using an HIV-specific protease enzyme test.
The results for the examples listed below were determined by the HIV test system described in the following literature reports [cf. Hansen, J., Billich, S., Schulze, T., Sukrow, S. and Molling, K. (1988), EMBO Journal, Vol. 7, No. 6, pages 1785-1791]: purified HIV protease was incubated with synthetic peptide which imitated a cleavage site in the Gag precursor protein and represented an in vivo cleavage site of the HIV protease. The resulting cleavage products of the synthetic peptide were analysed by means of reverse phase high performance liquid chromatography (RP-HPLC). The IC50 values given relate to the substance concentration which causes a 50% inhibition of protease activity under the abovementioned test conditions.

[1] = system: HIV-infected normal human blood lymphocytes (PBLs); test: HIV test in infected human blood lymphocytes (PBLs), syncytia formation, method of Pauwels et al.; format: cell-based; conditions: concentration at which 50% (about 10 syncytia) of the virus-induced syncytia were suppressed, day 3 to 6 after infection
Procedure: The HIV test was carried out with slight modifications by the method of Pauwels et al. (Journal of Virological Methods 20 (1988) 309-321).
Normal human blood lymphocytes (PBLs) were concentrated by means of Ficoll-Hypaque and stimulated with phytohaemagglutinin (90 μg/ml) and interleukin 2 (40 U/ml) in RPMI 1640 and 20% foetal calf serum. For infection with the infectious HIV, PBLs were pelleted and the cell pellet was then suspended in 1 ml of HIV virus adsorption solution and incubated at 37° C. for 1 hour.
The virus adsorption solution was centrifuged and the infected cell pellet was taken up in growth medium such that a concentration of 1×10^5 cells per ml was established. The cells infected in this way were pipetted into the wells of 96-well microtitre plates at a concentration of 1×10^4 cells/well. […]
The test batches were incubated at 37° C. until, in the untreated virus control, the syncytia formation typical for HIV occurred (between day 3 and 6 after infection), which was then evaluated microscopically.
The IC-50 values were determined as the concentration of the treated and infected cells at which 50% (about 10 syncytia) of the virus-induced syncytia were suppressed by treatment with the compound according to the invention.

| Compound | IC50 (HIV protease) | IC50 [1] |
| --- | --- | --- |
| CCOP(=O)(OCC)C1CCCN1C(=O)C[C@@H](O)[C@H](CC1CCCCC1)NC(=O)OC(C)(C)C (stereo partly drawn) [Example 28, Diethyl 1-{(3R,4S)-4-[(tert-butoxycarbonyl)amino]-5-cyclohexyl-3-hydroxypentanonyl]-(2R,S)-2-(pyrrolidinyl)phosphonate] | 10 µM |  |
| CCOP(=O)(OCC)C1CCCN1C(=O)C[C@H](O)[C@H](CC1CCCCC1)NC(=O)[C@@H](NC(=O)[C@H](Cc1cccc2ccccc12)CS(=O)(=O)C(C)(C)C)C(C)C (stereo partly drawn) [Example 14, Diethyl 1-{(3S,4S)-4-[(2S)-3-(tert-butylsulphonyl)2-(1-naphthylmethyl)propanoyl]-valinylamino-5-cyclohexyl-3-hydroxypentanoyl}-(2RorS)-2-(pyrrolidinyl)phosphonate] | 0.5 µM |  |
| CCOP(=O)(OCC)C1CCCN1C(=O)C[C@H](O)[C@H](CC1CCCCC1)NC(=O)[C@H](Cc1ccccc1)NC(=O)Nc1cccc2ccccc12 (single isomer, unassigned) [Example 16, Diethyl 1-{(3S,4S)-5-cyclohexyl-3-hydroxy-4-(1-napthylaminocarbonyl)phenylalaninyl]aminopentanoyl}-(2R or S)-2-(pyrrolidinyl)phosphonate] |  | 4.3 µM |
